{"source": "patent US7666874B2", "about": "“Pyrimidylaminobenzamide derivatives for hypereosinophilic syndrome” (Novartis AG, priority 2005, dated 2010)", "key": {"[1]": {"tested_on": "TEL-PDGFRβ", "assay": "Western blot of TEL-PDGFRβ phosphorylation and signaling intermediates in Ba/F3 cells", "format": "cell-based", "protocol": "For T/P: Ba/F3 cells stably expressing T/P or T/F are treated with serum starvation in plain RPMI 1640 for 4 hours prior to lysis. The cell extracts are clarified by centrifugation and used for immunoprecipitation or immunoblotting. The enzyme-linked immunoblotting procedures are performed as described. Applied antibodies include: rabbit anti-PDGFRβ serum (Pharmingen); rabbit anti-PI3K (p85) serum; mouse anti-phosphotyrosine 4G10 (Upstate Biotechnology); antibodies against FGFR3, phospho-PI3K p85 (Tyr-508) (Santa Cruz Biotechnology); PLCγ, phospho-PLCγ (Tyr-783) (Cell Signaling)."}, "[2]": {"target": "T1, Ba/F3 cells transformed by TEL-PDGFRβ T681I mutant (Homo sapiens, UniProt P09619, T681I)", "T1 construct": "TEL (ETV6) portion (fusion partner); expressed in transfected cells; host or cells: Ba/F3 cells (retroviral transduction, MSCV-neo); the other entry of the earlier key: ETV6 (P41212, Transcription factor ETV6)", "T1 sequence (P09619 554-1106 T681I limits assumed)": "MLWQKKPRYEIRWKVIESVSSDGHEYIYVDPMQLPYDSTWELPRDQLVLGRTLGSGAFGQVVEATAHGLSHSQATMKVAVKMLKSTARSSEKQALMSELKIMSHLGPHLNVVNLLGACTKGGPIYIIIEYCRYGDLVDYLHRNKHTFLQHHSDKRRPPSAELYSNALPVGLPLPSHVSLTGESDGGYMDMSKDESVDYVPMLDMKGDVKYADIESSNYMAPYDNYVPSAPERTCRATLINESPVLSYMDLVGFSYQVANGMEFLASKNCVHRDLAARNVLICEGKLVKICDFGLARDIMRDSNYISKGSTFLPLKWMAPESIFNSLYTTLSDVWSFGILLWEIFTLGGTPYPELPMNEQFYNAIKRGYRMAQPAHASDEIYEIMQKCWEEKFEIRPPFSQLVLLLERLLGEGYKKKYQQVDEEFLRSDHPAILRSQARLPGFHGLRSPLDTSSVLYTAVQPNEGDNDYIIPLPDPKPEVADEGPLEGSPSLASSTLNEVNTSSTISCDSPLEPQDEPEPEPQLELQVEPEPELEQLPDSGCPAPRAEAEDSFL", "assay": "Proliferation of Ba/F3 cells transformed by TEL-PDGFRβ T681I mutant", "format": "cell-based", "conditions": "Ba/F3 cells transformed with TEL-PDGFRβ T681I mutant", "method": "(§6) TEL-PDGFRβ [T/P], FIP1L1-PDGFRα [F/P], and FIP1L1-PDGFRα T6741 cloned in MSCV-IRES-GFP [MSCV-GFP], and TEL-PDGFRβ, TEL-PDGFRβ T681I, and TEL-FGFR3 [T/F] are cloned in MSCV-neomycin [MSCV-neo].\n(§7) Ba/F3 cells are cultured in RPMI 1640 (RPMI)+10% FBS+1 ng/mL mouse interleukin (IL)-3. Retroviral supernatants are generated and used to transduce Ba/F3 cells. T/P MSCV-neo and T/F MSCV-neo cell lines are selected with 1 mg/mL G418 in the presence of IL-3 for 8-10 days. F/P MSCV-GFP cell lines are selected in RPMI lacking IL-3 for 7-10 days. […] Transformed Ba/F3 cells are grown in RPMI lacking IL-3.\n(§8) The effects of compounds on viability and proliferation of the cells were determined using the luminescent ATP Detection assay kit ATPLite™ from Perkin Elmer Life Sciences (Cat. No: 6016947) according to the instructions of the suppliers. This assay system is based on the production of light (luminescence) caused by the reaction of ATP with added luciferase and D-luciferin. […]\n(§9) The effect of the compound was expressed as percent reduction of the control signal. The TGI50 values were determined from the dose response curves by graphical extrapolation."}, "[3]": {"tested_on": "TEL-PDGFRβ", "assay": "Murine bone marrow transplant model of TEL-PDGFRβ-induced myeloproliferative disease", "format": "in vivo, mouse (Balb/C)", "conditions": "TEL-PDGFRβ transplanted mice", "protocol": "(§1) Murine bone marrow transplant experiments are performed as previously described. MSCV-GFP retroviral supernatants are titered by transducing Ba/F3 cells with supernatant (plus polybrene, 10 μg/mL) and analyzing for the percentage of GFP+ cells by flow cytometry at 48 h post-transduction. Balb/C donor mice (Taconic) are treated for 5-6 days with 5-fluorouracil (150 mg/kg, intraperitoneal injection). Bone marrow cells from donor mice are harvested, treated with red blood cell lysis buffer, and cultured 24 h in transplant medium (RPMI+10% FBS+6 ng/mL IL-3, 10 ng/mL IL-6, and 10 ng/mL stem cell factor). Cells are treated by spin infection with retroviral supernatants (1 mL supernatant per 4×10^6 cells, plus polybrene) and centrifuged at 2500 rpm for 90 min. 24 h later, the spin infection is repeated, then cells are washed, resuspended in Hank's balanced salt solution, and injected into lateral tail veins of lethally irradiated (2×450 rad) Balb/C recipient mice (Taconic) at 0.5-1×10^6 cells/mouse. […] Animals are sacrificed when they had palpable splenomegaly or were moribund, or, if healthy, 7 days after sacrifice of the last animal in the placebo group.\n(§2) Peripheral blood is collected from the retroorbital cavity using heparinized glass capillary tubes and analyzed by automated complete and differential blood cell counts and smears (stained with Wright and Giemsa). Single cell suspensions of spleen and bone marrow are prepared by pressing tissue through a cell strainer, followed by red blood cell lysis. Cells are frozen in 90% FBS, 10% DMSO.\n(§3) For histopathology, tissues are fixed for at least 72 h in 10% neutral buffered formalin, dehydrated in alcohol, cleared in xylene, and infiltrated with paraffin on an automated processor (Leica). The tissue sections (4 μm) from paraffin-embedded tissue blocks are placed on charged slides and deparaffinized in xylene, rehydrated through graded alcohol solutions, and stained with hematoxylin and eosin.\n(§4) For flow cytometry, cells are washed in PBS+1% bovine serum albumin (BSA), blocked with Fc-Block (BD Pharmingen) for 10 min on ice, and stained with monoclonal antibodies in PBS+1% BSA for 20 min on ice. Antibodies used are: allophycocyanin (APC)-conjugated Gr1, CD19, and TCRB; and phycoethrin (PE)-conjugated Mac-1, B220, and CD3 (BD Pharmingen). Flow cytometric analysis is performed on a FACSCalibur instrument and analyzed with CellQuest software. Viability is assessed by incubating cells with 7AAD (BD Pharmingen) for 5 min prior to flow cytometry. Cells are gated for viability (using forward/side scatter and 7AAD) and GFP positivity, and 10,000 events are analyzed from this subset for marker expression.\nStatistical significance of differences between Compound (II)- and placebo-treated groups in survival time, white blood cell counts, and spleen weights are assessed using a two-sided Mann-Whitney U-test (Wilcoxon rank sum test).\nA murine bone marrow transplant protocol is used to model myeloproliferative disease caused by TEL-PDGFRβ and FIP1L1-PDGFRα. Retroviral transduction of these fusion kinases into bone marrow cells of 5FU-treated donor mice, followed by transplantation into lethally irradiated recipients, produces a rapidly fatal myeloproliferative phenotype characterized by leukocytosis with myeloid predominance, splenomegaly, and extramedullary hematopoiesis.\n(§5) Donor bone marrow cells are transduced with a murine retroviral vector expressing TEL-PDGFRβ or FIP1L1-PDGFRα and transplanted into recipients."}, "[4]": {"target": "T2, Ba/F3 Tel-PDGFRβ cells (Homo sapiens, UniProt P09619)", "T2 construct": "TEL-PDGFRβ, TEL-PDGFRβ T681I, and TEL-FGFR3 [T/F] are cloned in MSCV-neomycin [MSCV-neo]; fused on or other part: P41212 (Transcription factor ETV6)", "T2 sequence (P09619 whole entry, stated change not applied, the tested form may be a part)": "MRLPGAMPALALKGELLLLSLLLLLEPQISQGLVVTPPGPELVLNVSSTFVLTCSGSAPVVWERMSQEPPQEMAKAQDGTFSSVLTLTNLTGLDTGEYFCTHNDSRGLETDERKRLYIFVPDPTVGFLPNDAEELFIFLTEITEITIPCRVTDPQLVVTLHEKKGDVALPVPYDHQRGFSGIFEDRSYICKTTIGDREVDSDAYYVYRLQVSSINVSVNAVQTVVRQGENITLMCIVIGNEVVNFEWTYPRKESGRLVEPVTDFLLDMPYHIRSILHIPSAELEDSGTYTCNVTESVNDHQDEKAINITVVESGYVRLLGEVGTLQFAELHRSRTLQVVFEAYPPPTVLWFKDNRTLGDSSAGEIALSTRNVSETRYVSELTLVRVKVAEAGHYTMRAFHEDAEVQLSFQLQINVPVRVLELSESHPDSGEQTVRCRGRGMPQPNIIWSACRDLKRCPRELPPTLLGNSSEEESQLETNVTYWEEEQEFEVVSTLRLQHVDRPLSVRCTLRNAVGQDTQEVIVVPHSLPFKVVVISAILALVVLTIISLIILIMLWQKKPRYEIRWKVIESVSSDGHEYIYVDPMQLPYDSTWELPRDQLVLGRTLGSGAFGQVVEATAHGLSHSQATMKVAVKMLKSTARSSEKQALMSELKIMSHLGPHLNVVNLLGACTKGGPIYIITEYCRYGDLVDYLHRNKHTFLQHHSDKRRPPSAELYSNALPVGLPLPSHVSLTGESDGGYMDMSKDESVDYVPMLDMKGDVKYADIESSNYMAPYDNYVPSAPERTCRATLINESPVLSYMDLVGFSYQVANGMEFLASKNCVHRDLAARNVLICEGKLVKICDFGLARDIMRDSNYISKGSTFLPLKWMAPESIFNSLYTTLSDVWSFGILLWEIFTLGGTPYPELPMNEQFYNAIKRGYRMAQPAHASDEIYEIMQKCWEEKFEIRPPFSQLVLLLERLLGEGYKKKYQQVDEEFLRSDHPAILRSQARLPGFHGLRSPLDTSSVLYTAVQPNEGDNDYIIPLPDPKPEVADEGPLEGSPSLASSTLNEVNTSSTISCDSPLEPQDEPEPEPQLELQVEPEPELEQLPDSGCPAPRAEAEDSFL", "assay": "IL-3 independence cell proliferation assay (ATPLite), Ba/F3 Tel-PDGFRβ", "format": "cell-based", "method": "as §6, §7, §8, §9"}, "[5]": {"target": "T3, FIP1L1-PDGFRα (Homo sapiens, UniProt P16234)", "T3 construct": "FIP1L1 portion (fusion partner); expressed in transfected cells; host or cells: Balb/C mouse donor bone marrow cells (retroviral transduction, MSCV-GFP), transplanted into Balb/C recipients; the other entry of the earlier key: FIP1L1 (Q6UN15, Pre-mRNA 3'-end-processing factor FIP1)", "T3 sequence (P16234 593-1089 limits assumed)": "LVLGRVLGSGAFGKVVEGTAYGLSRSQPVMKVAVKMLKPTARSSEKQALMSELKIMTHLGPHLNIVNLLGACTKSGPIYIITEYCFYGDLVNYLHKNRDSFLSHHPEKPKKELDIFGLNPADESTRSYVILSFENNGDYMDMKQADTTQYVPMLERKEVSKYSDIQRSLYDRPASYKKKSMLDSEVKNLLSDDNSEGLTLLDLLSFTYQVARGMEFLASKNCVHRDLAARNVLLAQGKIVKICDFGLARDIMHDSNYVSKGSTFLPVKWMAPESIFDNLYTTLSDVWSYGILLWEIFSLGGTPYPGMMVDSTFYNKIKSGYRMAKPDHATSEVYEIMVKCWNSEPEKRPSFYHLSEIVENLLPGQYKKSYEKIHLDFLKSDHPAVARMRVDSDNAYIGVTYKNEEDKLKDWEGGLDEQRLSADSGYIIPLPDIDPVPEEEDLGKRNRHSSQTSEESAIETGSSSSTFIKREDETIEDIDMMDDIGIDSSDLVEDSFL", "assay": "Murine bone marrow transplant model of FIP1L1-PDGFRα-induced myeloproliferative disease", "format": "in vivo, mouse (Balb/C)", "conditions": "FIP1L1-PDGFRα transplanted mice", "protocol": "as §1, §2, §3, §4\nA murine bone marrow transplant protocol is used to model myeloproliferative disease caused by TEL-PDGFRβ and FIP1L1-PDGFRα.\nas §5"}, "[6]": {"conditions": "daily oral gavage 150 mg/kg/day from day 11"}, "[7]": {"conditions": "daily oral gavage 150 mg/kg/day from day 11 after transplant"}}, "data": [{"smiles": "Cc1cn(-c2cc(NC(=O)c3ccc(C)c(Nc4nccc(-c5cccnc5)n4)c3)cc(C(F)(F)F)c2)cn1", "note": "[Compound (II), 4-methyl-3-[[4-(3-pyridinyl)-2-pyrimidinyl]amino]-N-[5-(4-methyl-1H-imidazol-1-yl)-3-(trifluoromethyl)phenyl] benzamide]", "values": [{"measurement": "Phosphorylation of PDGFRβ signaling intermediates including PLCγ and PI3K", "setting": "[1]", "value": "effectively inhibited"}, {"measurement": "TEL-PDGFRβ tyrosine autophosphorylation", "setting": "[1]", "value": "effectively inhibited"}, {"measurement": "Inhibition of transformed Ba/F3 cells", "setting": "[2]", "value": "inhibited"}, {"measurement": "FACS analysis of spleen, B220+/CD19+ cells", "setting": "[3]; compared to placebo", "value": "slightly increased percentage"}, {"measurement": "FACS analysis of spleen, Gr1+/Mac1+ cells", "setting": "[3]; compared to placebo", "value": "consistently reduced percentage"}, {"measurement": "Histopathology of hematopoietic organs", "setting": "[3]; compared to placebo", "value": "significantly less severe myeloproliferative disease"}, {"measurement": "Liver weight, Mean", "setting": "[3]; [6]", "value": 1492.5, "unit": "mg"}, {"measurement": "Liver weight, Median", "setting": "[3]; [6]", "value": 1535, "unit": "mg"}, {"measurement": "Liver weight, Range", "setting": "[3]; [6]", "value": "1320 to 1590", "unit": "mg"}, {"measurement": "Spleen weight, Mean", "setting": "[3]; [6]", "value": 350.0, "unit": "mg"}, {"measurement": "Spleen weight, Median", "setting": "[3]; [6]", "value": 340, "unit": "mg"}, {"measurement": "Spleen weight, Range", "setting": "[3]; [6]", "value": "250 to 470", "unit": "mg"}, {"measurement": "WBC, Median", "setting": "[3]; [6]", "value": "1.59e+07", "unit": "mL⁻¹"}, {"measurement": "WBC, Range", "setting": "[3]; [6]", "value": "10.9-33.5 ×10^6/mL"}, {"measurement": "WBC, Mean", "setting": "[3]; [7]", "value": "1.86e+07", "unit": "mL⁻¹"}, {"measurement": "Survival", "setting": "[3]; placebo median latency 17 days, p<0.001", "value": 26, "unit": "days"}, {"measurement": "Total white blood cells (WBC)", "setting": "[3]; vs 563.7 for placebo, p<0.05", "value": "18.6 ×10^6 cells/mL"}, {"measurement": "GI50", "setting": "[4]; Ba/F3 Tel-PDGFRβ cells, 70 h incubation, read-out: IC50, inhibition of proliferation", "value": "< 100", "unit": "nM"}, {"measurement": "Inhibition of transformed Ba/F3 cells", "setting": "[4]; Ba/F3 cells transformed with TEL-PDGFRβ", "value": "inhibited"}, {"measurement": "Extramedullary hematopoiesis in liver", "setting": "[5]; compared to placebo", "value": "notable absence of any extramedullary hematopoiesis"}, {"measurement": "Histopathology of spleen", "setting": "[5]; compared to placebo", "value": "striking preservation of normal splenic architecture"}, {"measurement": "Liver weight, Mean", "setting": "[5]; [6]", "value": 1128.0, "unit": "mg"}, {"measurement": "Liver weight, Median", "setting": "[5]; [6]", "value": 1090, "unit": "mg"}, {"measurement": "Liver weight, Range", "setting": "[5]; [6]", "value": "1080 to 1290", "unit": "mg"}, {"measurement": "Spleen weight, Mean", "setting": "[5]; [6]", "value": 88.0, "unit": "mg"}, {"measurement": "Spleen weight, Median", "setting": "[5]; [6]", "value": 100, "unit": "mg"}, {"measurement": "Spleen weight, Range", "setting": "[5]; [6]", "value": "50 to 100", "unit": "mg"}, {"measurement": "WBC, Median", "setting": "[5]; [6]", "value": "4.7e+06", "unit": "mL⁻¹"}, {"measurement": "WBC, Range", "setting": "[5]; [6]", "value": "4.0-9.6 ×10^6/mL"}, {"measurement": "WBC, Mean", "setting": "[5]; [7]", "value": "5.6e+06", "unit": "mL⁻¹"}, {"measurement": "Survival: all treated animals alive and healthy until study termination", "setting": "[5]; all placebo animals lost by day 24", "value": "≥ 33", "unit": "days"}, {"measurement": "Total WBC", "setting": "[5]; vs 569.7 for placebo, p<0.01", "value": "5.6 ×10^6 cells/mL"}]}]}
